{"source": "patent US8791099B2", "about": "“Transition metal complexes of corroles for preventing cardiovascular diseases or disorders” (Technion Research and Development Foundation Ltd., priority 2007, dated 2014)", "key": {"[1]": {"test": "Oxidation of deoxyribose to malonyldialdehyde by peroxynitrite", "conditions": "pH 7.4, T=25°C, yield relative to [PN]0; PN alone 1.7%", "experimental": "1 mL of 2.8% trichloroacetic acid and 1 mL of 1% thiobarbituric acid in 0.1 M NaOH adjusted to pH 3.5 were sequentially added to 1 mL samples and the absorbance spectra at 532 nm due to the absorbance maximum of the MDA-thiobarbiturate product were recorded as a function of time (0-22 hr) at 24° C.\n(§1) These particular molecules were specifically chosen because they represent targets of hydroxyl radical, nitrogen dioxide, and of oxygen transfer reagents. In addition, their reaction products are easily identified and quantified by established methods."}, "[2]": {"test": "Nitration of fluorescein by peroxynitrite", "conditions": "pH 7.4, T=25°C, relative to [fluorescein]0; PN alone 30%", "experimental": "The changes in fluorescein absorbance were measured on the UV/vis spectrophotometer. The yield of nitration was determined by converting absorbance to changes in concentration of fluorescein and nitrated fluorescein, using pre-determined extinction coefficients. For increased accuracy, the three wavelengths in which the largest changes in absorbance occur were used. The yields were calculated based on the initial substrate concentration.\nas §1"}, "[3]": {"test": "Nitration of L-tyrosine by peroxynitrite", "conditions": "pH 7.4, T=25°C, yield relative to [PN]0; PN alone 11%", "experimental": "e) Nitration of L-tyrosine: Peroxynitrite (0.44 μmol) was reacted with 0.16 μmol of L-tyrosine in 2 mL phosphate buffer solution, pH 7.4 at T=24° C. for 5 min. The concentration of such formed nitrotyrosine was estimated by recording the 438 nm absorbance (ε=4200 M^−1cm^−1) of basified solutions (via the addition of 0.2 ml of 7.8 M NaOH).\nas §1"}, "[4]": {"test": "Oxidation of tetramethylene sulfoxide to sulfolane by peroxynitrite", "experimental": "The sulfolane was extracted into diethyl ether after 10 min of stirring and quantified by GC analysis. The same experiment was done at pH 12.7, with a reaction time of 4 hr.\nas §1"}, "[5]": {"test": "Decomposition of peroxynitrite, comparison with punicalagin", "conditions": "for Minimal concentration required for reducing the half lifetime of peroxynitrite by 50%: calculated from rate constants", "experimental": "For initial assessment of possible superiority of the metallocorroles relative to natural antioxidants, we have determined the effect of excess (45-135 μM) punicalagin—the active polyphenolic hydrolysable tannin ingredient of pomegranate juice (Tzulker et al., 2007), on decomposition of peroxynitrite (40 μM)."}, "LDL": {"test_system": "LDL", "test": "Oxidation of LDL by copper sulfate", "format": "biochemical, human", "conditions": "for Increased damage (TBARS): corrole 0.5 μM", "experimental": "(§2) Oxidation was initiated by addition of a freshly prepared CuSO4 solution (5 μM) and incubation at 37° C. under air in a shaking water bath was continued for 2 h (LDL) or 5 h (HDL). Lipoprotein oxidation was determined by measuring the amount of TBARS (Aviram et al. 2001).\n(§3) Conjugated dienes formation was continuously monitored for 165 min while TBARS and lipid peroxides (Aviram et al. 2001) were measured after 15, 30, 45, 60, 75, 90, 120 and 165 minutes.\nThe more commonly used copper-induced LDL oxidation protocol was also applied. […] This may be appreciated from FIGS. 3A-3C, which show the time course of stepwise formation of conjugated dienes, hydroperoxides, and aldehydes (2.5 μM of metal corrole). […] The total amount of hydroperoxides rapidly reached a maximum at 45 min (due to its subsequent transformation to the final aldehyde products) and the total concentration of aldehydes was increased by a factor of 3 relative to the control experiment. […] Similar results were obtained for HDL oxidation.\nThe dependence of LDL oxidation on the corrole concentration was examined by analyses performed 2 hours after oxidation initiation by the copper ion (FIG. 4A)."}, "HDL": {"test_system": "HDL", "test": "Oxidation of HDL by copper sulfate", "format": "biochemical, human", "conditions": "for Effect on conjugated dienes formation in HDL: 2.5 μM corrole, 5 μM CuSO4", "experimental": "as §2, §3\nThe results for the copper-induced oxidation of HDL were very similar to the results obtained for LDL. […] It should be mentioned that the damage measured for HDL is lower than that measured for LDL, due to the lower lipid content of HDL."}, "J-774 macrophages": {"test_system": "J-774 macrophages", "test": "Corrole-mediated cholesterol efflux from J-774 macrophages", "format": "cell-based, Murine", "conditions": "lipoprotein-free medium, 10, 25 or 50 μM, 4 hour, dose-dependent", "experimental": "Murine J-774 cells (1×10^6/mL) were plated in 24-well plates for 24 hours, then washed and incubated for 1 hour in serum-free DMEM that contained ^3H-cholesterol (2 μCi/mL) and BSA (0.2%). […] After a 4-hour incubation at 37° C. to permit efflux of ^3H-cholesterol from the cells into the medium, 500 μL of the medium was collected. The cells were washed with PBS, 1 mL of 0.1 N NaOH was added to the cells and 500 μL was collected the next day. Medium and cellular ^3H-cholesterol were determined by liquid scintillation counting (LSC). […] Corrole-mediated cholesterol efflux was calculated after subtraction of the non-specific efflux obtained in cells incubated in the absence of corroles.\nA still further indication for a favorable alteration of cellular cholesterol transport by metallocorroles was obtained by studying cholesterol efflux from J-774 macrophages in a lipoprotein-free medium. The iron complex (but not the manganese and gallium complexes) of corrole 1 increased the cholesterol efflux by up to 20% in a dose-dependent fashion."}, "[6]": {"test_system": "Apolipoprotein E deficient mice (E^0 mice)", "test": "Histopathology of aortic atherosclerosis lesions in E^0 mice", "format": "in vivo", "conditions": "oral, drinking water 0.04 mM (0.2 mg per mouse per day), 10 weeks; for Decrease in average lesion area relative to the control group: 1-Fe: mean of the four mice with lesions", "text": "At the end of the experiment, the mice were sacrificed and each heart and entire aorta were rapidly dissected out from each mouse and immersion-fixed in 3% glutaraldehyde in 0.1 mol/L sodium cacodylate buffer with 0.01% calcium chloride, pH 7.4, at room temperature. The first 4 mm of the aortic arch was stained with osmium tetroxide, which colors all the lipid components a dark brown-black color thus enabling delineation of the lesion with greater accuracy. The blocks were embedded in epon resin and thin transverse sections were cut to allow greater resolution of the lesion details. The area covered by the lesion was determined by image analysis (Coleman et al., 2006).\nTwo of the mice receiving that treatment did actually not develop atherosclerotic lesions at all and the average lesion area for the other four mice was 60% smaller than that obtained for the control mice. These observations are much better than those obtained by other methods, including E^0 mice that were treated by natural anti-oxidants (48% reduction when consuming red wine (Hayek et al., 1997; Fuhrman et al., 1995) and 44% for pomegranate juice (Aviram et al., 2000)) or those that were intraperitoneally-treated with different synthetic catalysts for decomposition of reactive oxygen species."}, "[7]": {"test_system": "Apolipoprotein E deficient mice (E^0 mice)", "test": "Serum total cholesterol in E^0 mice", "format": "in vivo", "conditions": "drinking water 0.04 mM (0.2 mg per mouse per day), 10 weeks", "from_the_text": "a) For atherosclerosis evaluation: At an age of about 10 weeks, 24 E^0 mice were randomly divided into 4 groups of 6 mice each.\nThe sacrificed mice were also examined with regard to other factors relevant to the development of atherosclerosis."}, "[8]": {"conditions": "pH 7.4, T=25°C, yield relative to [PN]0, PN alone 3.14%"}, "[9]": {"conditions": "pH 12.7, yield relative to [PN]0, PN alone 83%"}}, "note": "Marks after values point to notes of the source that are not given here.", "data": [{"smiles": "O=S(=O)(O)c1cc2[n]3c1C(c1c(F)c(F)c(F)c(F)c1F)=C1C=CC4=[N+]1[Mn-]31[n]3c(cc(S(=O)(=O)O)c3-2)C(c2c(F)c(F)c(F)c(F)c2F)=c2ccc([n]21)=C4c1c(F)c(F)c(F)c(F)c1F", "note": "(stereo not drawn) [1-Mn, 5,10,15-tris(pentafluorophenyl)-2,17-bis(sulfonic acid)-corrolato manganese(III)]", "values": [{"measurement": "Yield of malonyldialdehyde from deoxyribose", "setting": "[1]", "result": 0, "unit": "%"}, {"measurement": "Yield of nitrofluorescein from fluorescein", "setting": "[2]", "result": 0, "unit": "%"}, {"measurement": "Yield of L-nitrotyrosine from L-tyrosine", "setting": "[3]", "result": 0, "unit": "%"}, {"measurement": "Yield of sulfolane from tetramethylenesulfoxide", "setting": "[4]; [8]", "result": 0.18, "unit": "%"}, {"measurement": "Yield of sulfolane from tetramethylenesulfoxide", "setting": "[4]; [9]", "result": "0.6%^(b)"}, {"measurement": "Times more effective than punicalagin in peroxynitrite decomposition", "setting": "[5]", "result": 100, "unit": "times"}, {"measurement": "Minimal concentration required for reducing the half lifetime of peroxynitrite by 50%", "setting": "[5]", "result": 2.5, "unit": "mol %"}, {"measurement": "Factor of increase of total concentration of aldehydes relative to control", "setting": "LDL; 2.5 μM corrole, 5 μM CuSO4", "result": 3}, {"measurement": "Time at which total hydroperoxides reached a maximum", "setting": "LDL; 2.5 μM corrole, 5 μM CuSO4", "result": 45, "unit": "min"}, {"measurement": "Delay in formation of conjugated dienes", "setting": "LDL; 2.5 μM corrole, 5 μM CuSO4, control 30 minutes", "result": 15, "unit": "min"}, {"measurement": "Increased damage (TBARS)", "setting": "LDL; 2 hours after CuSO4", "result": "about 150%"}, {"measurement": "Effect on conjugated dienes formation in HDL", "setting": "HDL", "result": "shortened the delay time"}, {"measurement": "Increase of TBARS formation in HDL", "setting": "HDL; all concentrations measured, 5 hr after CuSO4", "result": "about 2 folds"}, {"measurement": "Increase of cholesterol efflux from J-774 macrophages", "setting": "J-774 macrophages", "result": "not"}, {"measurement": "Decrease in average lesion area relative to the control group", "setting": "[6]", "result": 17, "unit": "%"}, {"measurement": "Total serum cholesterol lower than in the control group", "setting": "[7]", "result": 26, "unit": "%"}]}, {"smiles": "O=S(=O)(O)c1cc2[n]3c1C(c1c(F)c(F)c(F)c(F)c1F)=C1C=CC4=[N+]1[Fe-]31[n]3c(cc(S(=O)(=O)O)c3-2)C(c2c(F)c(F)c(F)c(F)c2F)=c2ccc([n]21)=C4c1c(F)c(F)c(F)c(F)c1F", "note": "(stereo not drawn) [1-Fe, 5,10,15-tris(pentafluorophenyl)-2,17-bis(sulfonic acid)-corrolato iron(III)]", "values": [{"measurement": "Yield of malonyldialdehyde from deoxyribose", "setting": "[1]", "result": 0, "unit": "%"}, {"measurement": "Yield of nitrofluorescein from fluorescein", "setting": "[2]", "result": "4%^(a)"}, {"measurement": "Yield of L-nitrotyrosine from L-tyrosine", "setting": "[3]", "result": 11, "unit": "%"}, {"measurement": "Yield of sulfolane from tetramethylenesulfoxide", "setting": "[4]; [8]", "result": 0.1, "unit": "%^"}, {"measurement": "Yield of sulfolane from tetramethylenesulfoxide", "setting": "[4]; [9]", "result": "0.4%^(b)"}, {"measurement": "Times more effective than punicalagin in peroxynitrite decomposition", "setting": "[5]", "result": 5000, "unit": "times"}, {"measurement": "Minimal concentration required for reducing the half lifetime of peroxynitrite by 50%", "setting": "[5]", "result": 0.05, "unit": "mol %"}, {"measurement": "Aldehydes formation after 24 hours", "setting": "LDL; 2.5 μM corrole, 5 μM CuSO4", "result": "no aldehydes were formed"}, {"measurement": "Damage by all three criteria (conjugated dienes, hydroperoxides, aldehydes)", "setting": "LDL; 2.5 μM corrole, 5 μM CuSO4", "result": "practically no damage"}, {"measurement": "Fold by which the manganese porphyrin concentration for 100% inhibition exceeds the 1-Fe concentration for full inhibition", "setting": "LDL; 100 μM vs 2.5 μM", "result": 40, "unit": "fold"}, {"measurement": "Concentration giving full inhibition of LDL oxidation", "setting": "LDL; copper-induced LDL oxidation", "result": 2.5, "unit": "µM"}, {"measurement": "Increased damage (TBARS)", "setting": "LDL; 2 hours after CuSO4", "result": "minor increase in TBARS"}, {"measurement": "Effect on TBARS formation", "setting": "LDL; corrole 2.5 μM and higher, 2 hours after CuSO4", "result": "complete inhibition"}, {"measurement": "Effect on conjugated dienes formation in HDL", "setting": "HDL", "result": "completely eliminated their formation"}, {"measurement": "Effect on TBARS formation in HDL", "setting": "HDL; corrole 2.5 μM and higher, 5 hr after CuSO4", "result": "protective effect"}, {"measurement": "Increase of cholesterol efflux from J-774 macrophages", "setting": "J-774 macrophages", "result": "increases"}, {"measurement": "Increase of cholesterol efflux from J-774 macrophages", "setting": "J-774 macrophages; listed as iron complex", "result": "up to 20%"}, {"measurement": "Mice (of six) that did not develop atherosclerotic lesions at all", "setting": "[6]", "result": "Two and two"}, {"measurement": "Decrease in average lesion area relative to the control group", "setting": "[6]", "result": 60, "unit": "%"}, {"measurement": "Total serum cholesterol lower than in the control group", "setting": "[7]", "result": 40, "unit": "%"}]}]}
